Assays:
[1] = Mouse oral pharmacokinetic study; type: in vivo, male BALB/c mice
Protocol: Test system. Healthy male BALB/c mice (8-12 weeks old) weighing between 20 to 35 g were procured from In vivo biosciences, Bengaluru, India. Maximum three mice were housed in each polycarbonate cage. […] The temperature and humidity were recorded by auto-controlled data logger system. Animals were provided laboratory rodent diet ([…], Bengaluru) ad libitum and were provided fresh water ad libitum (reverse osmosis water treated with UV light). Study Design. […] The dosing volume administered for was 10 mL/kg. Formulation Preparation. Formulation of NEU-617 was given orally. The strength of oral suspension formulation was 4 mg/mL. The weighed quantity (39.22 mg) of compound NEU-617 for p.o. dosing was added in a mortar. […] Sample Collection. […] The blood samples (approximately 60 μL) were collected from the retro-orbital plexus into labeled tubes, containing K2EDTA solution, as an anticoagulant. Plasma was harvested from the blood by centrifugation at 4000 rpm for 10 min at 4±2° C. and stored below -70° C. until bioanalysis. […] Following collection, the brain samples were washed by dipping in 20 mL of ice-cold phosphate buffer saline (pH 7.4), dried gently on a filter paper, weighed and placed in polypropylene tubes. Further brain samples were homogenized using ice-cold phosphate buffer saline (pH 7.4) and the total homogenate volume was thrice the brain weight. The brain samples were stored at -70° C. until bioanalysis. Data analysis. The Non-Compartmental-Analysis module in WinNonlin® (Version 5.2) was used to assess the pharmacokinetic parameters. Peak plasma concentrations (Cmax) and time for the peak plasma concentrations (Tmax) were the observed values. The areas under the concentration time curve (AUClast and AUCinf) were calculated by linear trapezoidal rule.

[2] = tested on: endocytosis of transferrin; test: Receptor-mediated endocytosis of transferrin in the trypanosome; type: cell-based, T. brucei
[3] = tested on: L. major amastigote; test: L. major amastigote assay; type: cell-based; conditions: Leishmania major
[4] = logD; type: physicochemical
[5] = male
[6] = male, BALB/c, mouse, brain, 40 mg/kg PO single dose
[7] = male, BALB/c, mouse, plasma, 40 mg/kg PO single dose

For `Fc1cccc(COc2ccc(Nc3ncnc4ccc(-c5cccc(N6CCOCC6)c5)cc34)cc2Cl)c1` [Compound 23a, N-(3-Chloro-4-((3-fluorobenzyl)oxy)phenyl)-6-(3-morpholinophenyl)quinazolin-4-amine], the CNS fraction ([1]; 40 mg/kg single oral dose) was 5%, the “time plasma levels were in excess of the EC50” value ([1]; 40 mg/kg single oral dose) was > 12 h and the AUC(0-t) [1, 6] was 92.5 ng·h/mL. The Cmax [1, 6] was 26 ng/mL, the Tmax [1, 6] was 0.5 h and the AUC(0-inf) [1, 7] was 2000 ng·h/mL. For the same compound, the AUC(0-t) [1, 7] was 1950 ng·h/mL, the Cmax [1, 7] was 153 ng/mL and the Tmax [1, 7] was 2 h. For the same compound, the “effect on endocytosis of transferrin” value [2] was “no effect”, the EC50 [3] was 8 µM and the logD [4] was 3.2. The “Male rat hepatocytes median CLint” value [5] was 44.5 μl/min/1E6 cells.
